What was measured:
[1] = molecular target: T1, human recombinant GST cleaved CSNK1D (Homo sapiens, UniProt P48730); assay: Purified Enzyme Assay (ADP-Glo CSNK1D Kinase Assay); type: biochemical; settings: 2 nM CSNK1D; peptide substrate 150 μM; ATP 20 μM; 45 minutes at room temperature
T1 construct: GST (cleaved yes); purchased University of Dundee clone DU 19064
In short: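 GST-cleaved human recombinant CSNK1D phosphorylates peptide PLSRTL-pS-VASLPGL with ATP; compounds added in dose-response, 45 min at room temperature. ADP formed measured by ADP-Glo luminescence and converted to percent activity.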

human CSNK1D = molecular target: T2, human CSNK1D (Homo sapiens, UniProt P48730); assay: Whole Cell nBRET CSNK1D Binding Assay; settings: living CHO cells stably expressing human CSNK1D tagged with nanoluciferase; NanoBret tracer 130 nM; 2 hours at 37 C
T2 construct: expressed in transfected cells
T2 sequence (P48730 whole entry): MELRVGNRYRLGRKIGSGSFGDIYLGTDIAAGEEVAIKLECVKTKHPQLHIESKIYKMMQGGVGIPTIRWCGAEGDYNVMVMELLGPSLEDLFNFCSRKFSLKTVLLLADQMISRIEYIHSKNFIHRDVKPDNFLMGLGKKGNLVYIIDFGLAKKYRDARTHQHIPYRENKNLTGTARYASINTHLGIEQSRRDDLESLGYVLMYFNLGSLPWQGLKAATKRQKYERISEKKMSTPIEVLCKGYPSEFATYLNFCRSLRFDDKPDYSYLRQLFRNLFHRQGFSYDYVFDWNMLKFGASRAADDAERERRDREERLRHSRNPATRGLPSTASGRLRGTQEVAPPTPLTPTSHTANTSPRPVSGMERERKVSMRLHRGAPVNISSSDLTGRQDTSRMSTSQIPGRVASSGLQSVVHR

T1 sequence (P48730 whole entry): as above

Compound | IC50 [1] | IC50 (human CSNK1D)
Cc1nc2cc(-c3c(-c4ccc(F)cn4)nn4c3COC(C)(C)C4)ccn2n1 [Example 386, 2-(5-Fluoropyridin-2-yl)-6,6-dimethyl-3-(2-methyl-[1,2,4]triazolo[1,5-a]pyridin-7-yl)-6,7-dihydro-4H-pyrazolo[5,1-c][1,4]oxazine] | 162 nM | 9660 nM
CC1(C)Cn2nc(-c3ccc(F)cn3)c(-c3ccn4nccc4n3)c2CO1 [Example 387, 2-(5-Fluoropyridin-2-yl)-6,6-dimethyl-3-(pyrazolo[1,5-a]pyrimidin-5-yl)-6,7-dihydro-4H-pyrazolo[5,1-c][1,4]oxazine] | 30 nM | 760 nM
CC1(C)Cn2nc(-c3ccc(F)cn3)c(-c3ccnc4[nH]nc(Cl)c34)c2CO1 [Example 388, 3-(3-Chloro-1H-pyrazolo[3,4-b]pyridin-4-yl)-2-(5-fluoropyridin-2-yl)-6,6-dimethyl-6,7-dihydro-4H-pyrazolo[5,1-c][1,4]oxazine] | 4 nM | 14 nM
CC1(C)Cn2nc(-c3ccc(F)cn3)c(-c3c(F)cnc4[nH]ncc34)c2CO1 [Example 389, 3-(5-Fluoro-1H-pyrazolo[3,4-b]pyridin-4-yl)-2-(5-fluoropyridin-2-yl)-6,6-dimethyl-6,7-dihydro-4H-pyrazolo[5,1-c][1,4]oxazine] | 5 nM | 94 nM
CC1(C)Cn2nc(-c3ccc(F)cn3)c(-c3cc(C(F)F)nc4[nH]ncc34)c2CO1 [Example 390, 3-[6-(Difluoromethyl)-1H-pyrazolo[3,4-b]pyridin-4-yl]-2-(5-fluoro-2-pyridyl)-6,6-dimethyl-4,7-dihydropyrazolo[5,1-c][1,4]oxazine] | 6 nM | 141 nM
CC1(C)Cn2nc(-c3ccc(F)cn3)c(-c3cc(CCC(F)(F)F)nc4[nH]ncc34)c2CO1 [Example 391, 2-(5-Fluoro-2-pyridyl)-6,6-dimethyl-3-[6-(3,3,3-trifluoropropyl)-1H-pyrazolo[3,4-b]pyridin-4-yl]-4,7-dihydropyrazolo[5,1-c][1,4]oxazine] | 258 nM | 5380 nM
CC1(C)Cn2nc(-c3ccc(F)cn3)c(-c3c(F)cnc4[nH]nc(Cl)c34)c2CO1 [Example 392, 3-(3-Chloro-5-fluoro-1H-pyrazolo[3,4-b]pyridin-4-yl)-2-(5-fluoropyridin-2-yl)-6,6-dimethyl-6,7-dihydro-4H-pyrazolo[5,1-c][1,4]oxazine] | 7 nM | 26 nM
Cc1cc(-c2c(-c3ccc(F)c(C)n3)nn3c2COC(C)(C)C3)c2c(C)n[nH]c2n1 [Example 393, 3-(3,6-Dimethyl-1H-pyrazolo[3,4-b]pyridin-4-yl)-2-(5-fluoro-6-methylpyridin-2-yl)-6,6-dimethyl-6,7-dihydro-4H-pyrazolo[5,1-c][1,4]oxazine] | 49 nM | 2740 nM
Cc1nc(-c2c(-c3ccc(F)cc3)nn3c2COC(C)(C)C3)c2cn[nH]c2n1 [Example 394, 2-(4-Fluorophenyl)-6,6-dimethyl-3-(6-methyl-1H-pyrazolo[3,4-d]pyrimidin-4-yl)-4,7-dihydropyrazolo[5,1-c][1,4]oxazine] | 2 nM | 18 nM
[2H]C([2H])([2H])C1(C([2H])([2H])[2H])Cn2nc(-c3ccc(F)cn3)c(-c3ccnc(NC(=O)CC)c3)c2CO1 [Example 395, N-(4-(2-(5-Fluoropyridin-2-yl)-6,6-bis(methyl-d3)-6,7-dihydro-4H-pyrazolo[5,1-c][1,4]oxazin-3-yl)pyridin-2-yl)propionamide] | 2 nM | 21 nM
[2H]C([2H])([2H])C1(C([2H])([2H])[2H])Cn2nc(-c3ccc(F)cn3)c(-c3ccn4nccc4c3)c2CO1 [Example 396, 2-(5-Fluoropyridin-2-yl)-6,6-bis(methyl-d3)-3-(pyrazolo[1,5-a]pyridin-5-yl)-6,7-dihydro-4H-pyrazolo[5,1-c][1,4]oxazine] | 22 nM | 292 nM
[2H]C([2H])([2H])C1(C([2H])([2H])[2H])Cn2nc(-c3ccc(F)cn3)c(-c3c(F)cnc4[nH]ccc34)c2CO1 [Example 397, 3-(5-Fluoro-1H-pyrrolo[2,3-b]pyridin-4-yl)-2-(5-fluoropyridin-2-yl)-6,6-bis(methyl-d3)-6,7-dihydro-4H-pyrazolo[5,1-c][1,4]oxazine] | 2 nM | 11 nM
[2H]C([2H])([2H])C1(C([2H])([2H])[2H])Cn2nc(-c3ccc(F)cn3)c(-c3ccnc4[nH]nc(F)c34)c2CO1 [Example 398, 3-(3-Fluoro-1H-pyrazolo[3,4-b]pyridin-4-yl)-2-(5-fluoropyridin-2-yl)-6,6-bis(methyl-d3)-6,7-dihydro-4H-pyrazolo[5,1-c][1,4]oxazine] | 3 nM | 29 nM
[2H]C([2H])([2H])C1(C([2H])([2H])[2H])Cn2nc(-c3ccc(F)cn3)c(-c3c(F)cnc4[nH]ncc34)c2CO1 [Example 399, 3-(5-Fluoro-1H-pyrazolo[3,4-b]pyridin-4-yl)-2-(5-fluoropyridin-2-yl)-6,6-bis(methyl-d3)-6,7-dihydro-4H-pyrazolo[5,1-c][1,4]oxazine] | 5 nM | 95 nM
[2H]C([2H])([2H])C1(C([2H])([2H])[2H])Cn2nc(-c3ccc(F)cn3)c(-c3ccnc4[nH]nc(Cl)c34)c2CO1 [Example 400, 3-(3-Chloro-1H-pyrazolo[3,4-b]pyridin-4-yl)-2-(5-fluoropyridin-2-yl)-6,6-bis(methyl-d3)-6,7-dihydro-4H-pyrazolo[5,1-c][1,4]oxazine] | 4 nM | 30 nM
[2H]C([2H])([2H])C1(C([2H])([2H])[2H])Cn2nc(-c3ccc(F)cn3)c(-c3cc(C)nc4[nH]ncc34)c2CO1 [Example 401, 2-(5-Fluoropyridin-2-yl)-6,6-bis(methyl-d3)-3-(6-methyl-1H-pyrazolo[3,4-b]pyridin-4-yl)-6,7-dihydro-4H-pyrazolo[5,1-c][1,4]oxazine] | 4 nM | 43 nM
[2H]C([2H])([2H])C1(C([2H])([2H])[2H])Cn2nc(-c3ccc(F)cn3)c(-c3cc(C(F)F)nc4[nH]ncc34)c2CO1 [Example 402, 3-(6-(Difluoromethyl)-1H-pyrazolo[3,4-b]pyridin-4-yl)-2-(5-fluoropyridin-2-yl)-6,6-bis(methyl-d3)-6,7-dihydro-4H-pyrazolo[5,1-c][1,4]oxazine] | 5 nM | 75 nM
[2H]C([2H])([2H])C1(C([2H])([2H])[2H])Cn2nc(-c3ccc(F)cn3)c(-c3c(F)cnc4[nH]nc(Cl)c34)c2CO1 [Example 403, 3-(3-Chloro-5-fluoro-1H-pyrazolo[3,4-b]pyridin-4-yl)-2-(5-fluoropyridin-2-yl)-6,6-bis(methyl-d3)-6,7-dihydro-4H-pyrazolo[5,1-c][1,4]oxazine] | 5 nM | 23 nM
[2H]C([2H])([2H])C1(C([2H])([2H])[2H])Cn2nc(-c3ccc(F)cn3)c(-c3c(F)cnc4[nH]nc(C)c34)c2CO1 [Example 404, 3-(5-Fluoro-3-methyl-1H-pyrazolo[3,4-b]pyridin-4-yl)-2-(5-fluoropyridin-2-yl)-6,6-bis(methyl-d3)-6,7-dihydro-4H-pyrazolo[5,1-c][1,4]oxazine] | 9 nM | 137 nM
[2H]C([2H])([2H])C1(C([2H])([2H])[2H])Cn2nc(-c3ccc(F)cn3)c(-c3cc(C)nc4[nH]nc(Cl)c34)c2CO1 [Example 405, 3-(3-Chloro-6-methyl-1H-pyrazolo[3,4-b]pyridin-4-yl)-2-(5-fluoropyridin-2-yl)-6,6-bis(methyl-d3)-6,7-dihydro-4H-pyrazolo[5,1-c][1,4]oxazine] | 5 nM | 14 nM
[2H]C([2H])([2H])C1(C([2H])([2H])[2H])Cn2nc(-c3ccc(F)cn3)c(-c3c(F)c(C)nc4[nH]ncc34)c2CO1 [Example 406, 3-(5-Fluoro-6-methyl-1H-pyrazolo[3,4-b]pyridin-4-yl)-2-(5-fluoropyridin-2-yl)-6,6-bis(methyl-d3)-6,7-dihydro-4H-pyrazolo[5,1-c][1,4]oxazine] | 3 nM | 23 nM
[2H]C([2H])([2H])C1(C([2H])([2H])[2H])Cn2nc(-c3ccc(F)cn3)c(-c3c(Cl)c(C)nc4[nH]ncc34)c2CO1 [Example 407, 3-(5-Chloro-6-methyl-1H-pyrazolo[3,4-b]pyridin-4-yl)-2-(5-fluoropyridin-2-yl)-6,6-bis(methyl-d3)-6,7-dihydro-4H-pyrazolo[5,1-c][1,4]oxazine] | 25 nM | 219 nM
[2H]C([2H])([2H])C1(C([2H])([2H])[2H])Cn2nc(-c3ccc(F)cn3)c(-c3c(F)c(C)nc4[nH]nc(Cl)c34)c2CO1 [Example 408, 3-(3-Chloro-5-fluoro-6-methyl-1H-pyrazolo[3,4-b]pyridin-4-yl)-2-(5-fluoropyridin-2-yl)-6,6-bis(methyl-d3)-6,7-dihydro-4H-pyrazolo[5,1-c][1,4]oxazine] | 6 nM | 26 nM
[2H]C([2H])([2H])C1(C([2H])([2H])[2H])Cn2nc(-c3ccc(F)cn3)c(-c3c(F)c(C)nc4[nH]nc(C)c34)c2CO1 [Example 409, 3-(5-Fluoro-3,6-dimethyl-1H-pyrazolo[3,4-b]pyridin-4-yl)-2-(5-fluoropyridin-2-yl)-6,6-bis(methyl-d3)-6,7-dihydro-4H-pyrazolo[5,1-c][1,4]oxazine] | 12 nM | 69 nM
[2H]C([2H])([2H])C1(C([2H])([2H])[2H])Cn2nc(-c3ccc(F)cc3)c(-c3nc(C)nc4[nH]ncc34)c2CO1 [Example 410, 2-(4-Fluorophenyl)-6,6-bis(methyl-d3)-3-(6-methyl-1H-pyrazolo[3,4-d]pyrimidin-4-yl)-6,7-dihydro-4H-pyrazolo[5,1-c][1,4]oxazine] | 2 nM | 17 nM
